Test results taken from patent publication US10188633B2, “Identification of small molecules that facilitate therapeutic exon skipping” (The Regents of the University of California, priority 2011, dated 2019).
Like-named read-outs stand apart in the source and are kept apart here.

System: human DMD exon 50 GFP based reporter
Experiment: BioMol high throughput screen in Ex50-GFP reporter C2C12 myoblasts, with or without AON6
Format: cell-based, mouse
Conditions: for Average Fluorescence (n = 3): average of 3 replicate plates
Source text: Small molecule libraries were screened for exon skipping promoting activity in C2C12 myoblasts expressing a human DMD exon 50 GFP based reporter. […] In the reporter cells, successful skipping of DMD exon 50 creates in-frame GFP expression. Number of cells that were fluorescing was quantified using a high content cell imager in 384 well plate format. Fluorescence was normalized by subtracting the average fluorescence value of the carrier (DMSO) controls. Fluorescence readouts are plotted for the BioMol library screen both with (+AO) and without (−AO) from Source Plate 1 (containing the Orphan Ligand, Ion Channel, Enzyme Inhibitor, and Endocannabanoid libraries, n=300). Each point for the DMSO controls, all compounds, and the Top 5% from Source Plate 1 (n=15) represents the average normalized fluorescence of 6 replicates in the −AO screen and 3 replicates in the +AO screen. […] Individual points for dantrolene are plotted with the bold horizontal line indicating the median. The short horizontal lines interspersed among the data points indicate 1, 2, and 3 standard deviations away from the DMSO treatment mean fluorescence.
In contrast to prior screens aimed at identifying small molecules which impact exon skipping, our screen is unique at least because it relies on robust quantitation of a skipping reporter in the context of a muscle lineage cell in the presence and absence of suboptimal AO. These screens were performed using a mouse muscle cell line (C2C12) expressing a human DMD exon 50 GFP based reporter selected to minimize experimental variation and sensitivity in the context of an automated and quantitative fluorescent scanning system.
AO was added prior to small molecule incubation in an effort to identify molecules that facilitate AO skipping rather than AO delivery. The fluorescence induced by each compound was normalized to a vehicle controls per plate to correct for plate to plate variability. Fluorescence was averaged across replicate plates (n=6 without AO screen, n=3 with AO screen). Compounds were rank ordered based on average intensity of fluorescence and difference between the without AO and with AO screen (FIG. 1 and Table 2).
A stable clone was generated from C2C12 cells transfected with a human exon 50 DMD GFP reporter (ex50GFP) that has been previously described. Ex50GFP reporter myoblasts were seeded into uncoated 384 well plates and were incubated for 4 hours either with or without 300 nM of 2′-O-methyl phosphorothioate AON6 [5′[…] 3′ (SEQ ID NO:1)] targeting the human exon 50 splice donor site. Cells were transfected with AON6 using the FUGENE (Roche) transfection reagent per manufacturer's instructions. Following AON6 incubation, each component of the BioMol library (n=503) was screened at 10 uM concentration with a final concentration of the DMSO carrier being 1%. Forty-eight hours later fluorescence was measured using the MicroXpress high content imager and analyzed using MetaXpress. Immediately preceding imaging, DNA was stained with Hoescht for 30 min. The BioMol screen without AO (−AO) was performed in 6 replicates, and the with AO (+AO) screen was performed in 3 replicates. For the screen analysis raw fluorescence values were normalized to carrier controls present on each plate by subtracting the values. Negative fluorescence values were set to 0. The data from each compound were averaged from all replicates. For secondary screening by 12 or 16 point dose response, Ex50GFP myoblasts or C2C12 cells without the reporter were seeded on uncoated 384 well plates. A sub-optimal dose of AON6 targeting DMD exon 50 was added for 4 hours.

[1] = Without AON6 screen, compound 10 uM, 48 h, normalized to DMSO carrier controls
[2] = Without AON6 screen, compound 10 uM, average of 6 replicate plates
[3] = With AON6 screen, compound 10 uM, 48 h, fluorescence normalized by subtracting DMSO carrier controls
[4] = With AON6 screen, compound 10 uM, 48 h, normalized to DMSO carrier controls
[5] = With AON6 screen, compound 10 uM

SMILES | Fluorescence Plate 1 [1] | Fluorescence Plate 2 [1] | Fluorescence Plate 3 [1] | Fluorescence Plate 4 [1] | Fluorescence Plate 5 [1] | Fluorescence Plate 6 [1] | Average Fluorescence (n = 6) [2] | Average Fluorescence (n = 6) | Fluorescence Plate 1 | Fluorescence Plate 2 | Fluorescence Plate 3 | Fluorescence Plate 4 | Fluorescence Plate 5 | Fluorescence Plate 6 | Fluorescence Plate 1 [3] | Fluorescence Plate 2 [4] | Fluorescence Plate 3 [4] | Average Fluorescence (n = 3) [5]
N=C(NCc1ccc(Cl)c(Cl)c1)NC(=O)c1nc(Cl)c(N)nc1N [DICHLOROBENZAMIL] | 22.19 | 15.01 | 13.67 | 4.78 | 7.44 | 6.66 | 11.63 |  |  |  |  |  |  |  |  |  |  | 
COC(=O)C1=C(C)NC(C)=C(C(=O)OCCCN2CCC(c3ccccc3)(c3ccccc3)CC2)[C@H]1c1cccc([N+](=O)[O-])c1 [NIGULDIPINE] |  |  |  |  |  |  |  | 4.12 | 5.07 | 1.34 | 3.34 | 8.06 | 6.06 | 0.84 |  |  |  | 
CC(C)(C)c1cc(/C=C(\C#N)C(N)=S)cc(C(C)(C)C)c1O [AG-879] | 1.23 | 3.24 | 3.46 | 6.94 | 8.93 | 2.06 | 4.31 |  |  |  |  |  |  |  |  |  |  | 
Nc1ncnc2c1c(I)cn2[C@@H]1O[C@H](CO)C(O)C1O (stereo partly drawn) [5-IODOTUBERCIDIN] | -0.41 | 6.65 | 9.13 | 18.27 | 30.70 | 6.10 | 11.74 |  |  |  |  |  |  |  |  |  |  | 
O=Cc1c2c(cc3c1=Nc1ccccc1-3)=Nc1ccccc1-2 [6-FORMYLINDOLO [3,2-b] CARBAZOLE] |  |  |  |  |  |  |  |  |  |  |  |  |  |  | 30.05 | 30.08 | 32.59 | 30.90
CCCCC/C=C\C/C=C\C/C=C\C/C=C\CCCCCC(=O)NCCc1ccc(O)c(O)c1 [Docosatetra-7Z,10Z,13Z,16Z-enoyl dopamine] |  |  |  |  |  |  |  | 4.71 | −1.65 | 5.21 | 7.47 | 2.30 | 9.50 | 5.44 |  |  |  | 
COc1cc(/C=C(\C#N)C(N)=O)cc(CSc2nc3ccccc3s2)c1O [AG-825] |  |  |  |  |  |  |  |  |  |  |  |  |  |  | 17.24 | 23.38 | 11.53 | 17.38
Cn1cc(C2=C(c3cn(CCCSC(=N)N)c4ccccc34)C(=O)NC2=O)c2ccccc21 [Ro 31-8220] | 17.56 | 50.61 | 46.79 | 38.49 | 31.21 | 34.94 | 36.60 |  |  |  |  |  |  |  |  |  |  | 
N#C/C(=C\c1ccc(O)c(O)c1)C(N)=O [TYRPHOSTIN 46] |  |  |  |  |  |  |  |  |  |  |  |  |  |  | 8.61 | 30.70 | 14.09 | 17.80
COc1ccc2cc1Oc1ccc(cc1)C[C@H]1c3cc(c(OC)cc3CCN1C)Oc1c(OC)c(OC)cc3c1[C@H](C2)N(C)CC3 [TETRANDRINE] | 3.15 | 2.41 | 5.39 | 4.64 | 5.03 | 6.64 | 4.54 |  |  |  |  |  |  |  |  |  |  | 
CCN(CC)CCNC(=O)c1ccc(N)cc1 [PROCAINAMIDE] |  |  |  |  |  |  |  |  |  |  |  |  |  |  | 13.80 | 19.66 | 20.81 | 18.09
N#C/C(=C\c1ccc(O)c(O)c1)C(=O)Nc1ccccc1 [AG-494] | 5.92 | 1.23 | 1.65 | 7.58 | 3.54 | 5.26 | 4.20 |  |  |  |  |  |  |  | 19.38 | 25.36 | 25.25 | 23.33
C[C@@]12C(=O)OC(=O)[C@]1(C)[C@H]1CC[C@@H]2O1 [CANTHARIDIN] | 11.40 | −1.04 | 0.63 | 5.55 | 4.34 | 4.45 | 4.22 |  |  |  |  |  |  |  |  |  |  | 
CCCCCCCC/C=C\CCCCCCCC(=O)NCCc1ccc(O)c(O)c1 [Oleoyl dopamine] | 2.78 | 1.51 | 12.34 | 3.21 | 3.30 | 1.32 | 4.08 |  |  |  |  |  |  |  |  |  |  | 
COc1ccc2c3c([nH]c2c1)C(C)=NCC3.Cl [HARMALINE HCl] | 31.97 | 27.56 | 27.06 | 22.50 | 16.09 | 19.75 | 24.15 |  |  |  |  |  |  |  | 15.00 | 42.55 | 0.22 | 19.26
CC(n1cc(C[C@H](N)C(=O)O)c2ccccc21)n1cc(C[C@H](N)C(=O)O)c2ccccc21 |  |  |  |  |  |  |  |  |  |  |  |  |  |  | 20.72 | 11.15 | 22.18 | 18.02
N#CC(=C(N)Sc1ccccc1N)C(C#N)=C(N)Sc1ccccc1N [U-0126] |  |  |  |  |  |  |  |  |  |  |  |  |  |  | 17.87 | 35.65 | 16.65 | 23.39
N#C/C(=C/c1ccc(O)c(O)c1)C(=O)NCc1ccccc1 [AG-490] |  |  |  |  |  |  |  |  |  |  |  |  |  |  | 7.17 | 30.27 | 13.54 | 16.99
COC[C@H]1OC(=O)c2coc3c2[C@@]1(C)C1=C(C3=O)[C@@H]2CCC(=O)[C@@]2(C)C[C@H]1OC(C)=O [WORTMANNIN] | 4.99 | 3.07 | 4.23 | 5.92 | 6.44 | 3.78 | 4.74 |  |  |  |  |  |  |  |  |  |  | 
